Columns and labels:
melanoma cells = experiment: 51Cr release assay of SLC45A2-specific CD8 T cells against inhibitor-treated melanoma cells; format: cell-based, human; conditions: melanoma cells treated for 48 hours
Protocol: SLC45A2-specific CD8 T cells were assayed for specific lysis of SLC45A2-expressing or not expressing targets using standard 51Chromium (51Cr) release assay. Targets were labeled with 100 uCi of 51Cr for 2 hrs and after three times washing, the labeled targets plated triplicated well at a 2000 targets per well. Effector cells were incubated with targets as various effector:target (E:T) ratio. After 4 hours, 30 ul of supernatant was collected from each well and the 51Cr was measured by a gamma counter. The percentage of specific lysis was calculated.
(§1) Mel526 and A375 (BRAF V600E+) and MeWo (BRAF wild type) were treated with BRAF V600E inhibitor, dabrafenib (50 nM), or MEK inhibitor, Trametinib (50 nM) (GlaxoSmithKline) or both for 48 hours. Untreated melanomas were used as control.
Like other melanocyte differentiation proteins such as MART-1, gp100 and tyrosinase, the SLC45A2 gene is regulated by the MITF transcription factor (J Biol Chem, 2002, 277:402-406, Gen Soci Ame, 2008 178:761-769). MITF protein levels are suppressed by oncogenic BRAF through ERK-mediated phosphorylation and degradation (J Cell Biol, 2005, 170:703-708). […] Melanoma cells were treated with a specific inhibitor of BRAF V600E, dabrafenib (50 nM), or a MEK inhibitor, Trametinib (50 nM), or both for 48 hours and mRNA expression of SLC45A2 and MART-1 was analyzed by RT-PCR. […]

[1] = system: mRNA expression of SLC45A2 and MART-1; experiment: RT-PCR of SLC45A2 and MART-1 mRNA after MAPK pathway inhibitor treatment; format: cell-based, human; conditions: 50 nM, 48 hours
Protocol: Real time PCR was done with primers of SLC45A2, MART-1, gp100, and tyrosinase using power syber green PCR master mix (Applied biosystems life technologies). Values were normalized by the amount of the gene encoding GAPDH.
as §1
Like other melanocyte differentiation proteins such as MART-1, gp100 and tyrosinase, the SLC45A2 gene is regulated by the MITF transcription factor (J Biol Chem, 2002, 277:402-406, Gen Soci Ame, 2008 178:761-769). MITF protein levels are suppressed by oncogenic BRAF through ERK-mediated phosphorylation and degradation (J Cell Biol, 2005, 170:703-708). Thus, it was next investigated whether BRAF or MEK inhibitors can modulate SLC45A2 expression. Melanoma cells were treated with a specific inhibitor of BRAF V600E, dabrafenib (50 nM), or a MEK inhibitor, Trametinib (50 nM), or both for 48 hours and mRNA expression of SLC45A2 and MART-1 was analyzed by RT-PCR. […] To assess the killing effect of SCL45A2-specific CD8 T cells against melanoma cells after treatment with BRAF and MEK inhibitors, a ^51Cr release assay was performed in melanoma cells treated with a BRAF inhibitor, a MEK inhibitor or both for 48 hours.

| Compound | cytotoxicity of SLC45A2-specific CD8 T cells against treated vs untreated melanoma cells (melanoma cells) | mRNA expression of SLC45A2 and MART-1 ([1]; MeWo cells (wild type BRAF)) | mRNA expression of SLC45A2 and MART-1 ([1]; Mel526 cells (BRAF V600E)) |
| --- | --- | --- | --- |
| CC(=O)Nc1cccc(-n2c(=O)n(C3CC3)c(=O)c3c(Nc4ccc(I)cc4F)n(C)c(=O)c(C)c32)c1 [Trametinib] | increased cytotoxicity |  |  |
| CC(C)(C)c1nc(-c2cccc(NS(=O)(=O)c3c(F)cccc3F)c2F)c(-c2ccnc(N)n2)s1 [dabrafenib] | increased cytotoxicity | did not show an increased expression | significant increase |

— US20210170002A1, “SLC45A2 PEPTIDES FOR IMMUNOTHERAPY” (Board of Regents, The University of Texas System, priority 2015, published 2021)
